Reference: US7932022B2, “Dual-labeled molecular constructs for detection of biochemical reactions” (BioArray Solutions, Ltd., priority 2002, dated 2011)
Read-outs that look alike come from different tables or passages of the source. Where no end group is shown, it is not given here. [ ]: non-standard residue; d: D form. The star is where a group is joined. Biotin = O=C1N[C@H]2[C@H](CS[C@H]2CCCCC(=O)*)N1; pY = N[C@@H](Cc1ccc(OP(=O)(O)O)cc1)C(=O)O

Experiments:
[1] = test system: phosphorylated peptide-specific monoclonal mouse IgG antibodies; conditions: three-antibody detection, six bead types
[2] = test system: phosphorylated peptide-specific monoclonal mouse IgG antibodies; conditions: three-antibody detection
Source text: After coupling, the particles were washed by using PBST. Then, all of the peptide-functionalized beads were combined into a test tube for assembly of microparticle array according to known prior art methods, such as LEAPS, and direct disposition assembly method previously described in Provisional Application Ser. No. 60/343,621, filed Dec. […] The assembled microparticle array is blocked by using 1% BSA in PBST. For immunodetection of phosphorylated peptides on the array, the chip is incubated with monoclonal antibodies specific for the phosphorylation modification. The incubation is carried out in a humid chamber for binding of the antibodies to the phosphorylated peptides. The unbound antibodies are washed away by using PBST. For the purpose of signal amplification, the chip is incubated with secondary antibodies specific for the primary monoclonal antibodies bound on the arrays. The signal may be further amplified by incubation of the chips with fluorescent-labeled antibodies specific for the secondary antibodies. After washing with PBST, the array is examined by using a fluorescent microscope according to known prior art methods, such as the READ assays.
The peptide-functionalized microparticles are assembled into a particle array. The chip was incubated with phosphorylated peptide-specific monoclonal mouse IgG antibodies followed by incubation with mouse IgG-specific secondary antibodies, and then Cy5-labeled third antibodies for detection using a fluorescent microscope. Fluorescence was detected by Cy5 signals. […] The error bars in FIG. 22 represent standard deviation of the respective mean intensities.

[3] = test system: monoclonal antibodies specific for the phosphorylation modification; conditions: tyramide detection
Source text: […]

Substance | Cy5 signal intensity at 1000 ms integration [1] | Cy5 signal intensity at 1000 ms integration [2] | FITC signal intensity at 1000 ms integration [3]
Biotin-CEGPWLEEEEEA[pY]GWMDFK-Biotin [Peptide-P-2] | approximately 14,000 units | 15,500 units | 15,000 units
Biotin-CKVEKIGEGT[pY]GVVYK [Peptide-P-1] | approximately 14,000 units |  | 
Biotin-CRRLIEDAE[pY]AARGK [Peptide-P-3] | approximately 14,000 units |  | 
Biotin-KVEKIGEGTYGVVYK [Ty-1] | approximately 1000 units | approximately 1400 units | approximately 700 units
Biotin-KVEKIGEGT[pY]GVVYK [Ty-P-1] | approximately 14,000 units | 15,000 units | 11,000 units
